Experimental findings from US5500430A, “Amidic derivatives of glutamic, aspartic and 2-amino adipic acids, a process for preparing same, and anti-gastrin composition containing the derivatives” (Rotta Research Laboratorium S.p.A., priority 1990, dated 1996) are described below.

Assay [1] concerns the target T1, gastrin receptor sites on the cerebral cortex membranes of mice (Mus musculus, UniProt P56481).
T1 construct: Mouse cortical tissue; from tissue; host or cells: mouse cerebral cortex membranes
T1 sequence (P56481 1-453): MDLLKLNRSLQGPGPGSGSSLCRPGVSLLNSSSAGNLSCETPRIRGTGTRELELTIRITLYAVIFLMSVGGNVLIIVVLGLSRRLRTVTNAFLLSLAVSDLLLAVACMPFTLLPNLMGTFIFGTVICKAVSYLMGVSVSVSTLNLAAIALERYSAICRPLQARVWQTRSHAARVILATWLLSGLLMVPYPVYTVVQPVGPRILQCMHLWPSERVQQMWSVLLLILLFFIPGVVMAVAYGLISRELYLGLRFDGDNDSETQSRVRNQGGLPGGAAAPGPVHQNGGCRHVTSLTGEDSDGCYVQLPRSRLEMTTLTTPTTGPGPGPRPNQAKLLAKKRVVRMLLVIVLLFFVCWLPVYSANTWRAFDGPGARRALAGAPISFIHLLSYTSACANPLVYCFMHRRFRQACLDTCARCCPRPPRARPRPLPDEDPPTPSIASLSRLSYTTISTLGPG
Kind of assay: Inhibition of the binding of pentagastrin to mouse cortical membranes. The conditions noted are these: pentagastrin tritiate ligand, 40 minutes at 37° C.; read-out: IC50, inhibition of the binding of pentagastrin. From the text:
Tests on binding to cerebral cortex membranes of mice
The capacities of some of the compounds of the invention to inhibit the binding of pentagastrin to the gastrin receptor sites on the cerebral cortex membranes of mice was to be evaluated. Pentagastrin tritiate[beta-alanyl-3-3H(N)] was used as the ligand.
Mouse cortical tissue Was homogenised cold in 20 volumes of tris buffer (pH 7.7). After washing and centrifuging, the final pellet was resuspended in 20 volumes of binding buffer containing, inter alia, TRIS, BSA and Bacitracin. 0.4 ml of the membrane thus obtained were then incubated with a radioactive tracer and the compounds under test for 40 minutes at 37° C.
After the supernatant liquid had been removed by centrifuging, the radioactivity associated with the pellet was determined with a liquid scintillator (a beta-counter). The specific binding was the difference between the binding in the absence and in the presence of 10^-5M pentagastrin.

Assay [2] deals with gastric acid secretion induced by pentagastrin. Kind of assay: Antisecretive activity in anaesthetised rats (pentagastrin-stimulated gastric acid secretion). Type of assay: in vivo. The following applies: pentagastrin 30 mcg/Kg/h; for ED50: Rattus norvegicus, iv, anaesthetised male rats, I.V. bolus, IN with bound, read-out: Antagonistic activity (ID50) towards gastric acid secretion induced by pentagastrin; for Antigastrin activity (in words): anaesthetised rats. The protocol:
Antisecretive activity in anaesthetised rats
Antisecretive activity in rats was determined with the use of male animals each weighing about 200 g, anaesthetised with urethane. Gastric secretion was stimulated with pentagastrin. The method of K. S. Lai (Gut 5, (1964), 327-341) was used, slightly modified.
After tracheotomy, cannulae were inserted in the oesophagus and the duodenum. A tepid solution. (37° C.) of 0.25 mM NaOH was perfused and passed through the stomach by means of a peristaltic pump at a constant flow rate of 1 ml/minute. After stabilisation for 20 minutes, the stimulating agent, dissolved in a physiological solution, was perfused for 120 minutes at a dose of 30 mcg/Kg/h in a volume of 0.95 ml/hour. After perfusion for 60 minutes (the basal stimulation), the product under test was administered as an intravenous bolus (I.V.) and the perfusion of the stimulant continued for a further 60 minutes. Acid secretion was recorded continuously as a function of time.
The activity of the product was evaluated as the percentage reduction in the secreted acidity after the administration of the product compared with the base acidity measured during the first 60 minutes of collection during which only the pentagastrin was present.
Different doses of the antagonist compounds tested were administered so that an ID50, that is, the dose (in mg/Kg I.V.) capable of inhibiting the effect of pentagastrin by 50%, could be calculated.
The results thus obtained are illustrated in the following table (Table 1) in which the activities of the compounds are expressed as the ID50s under the stimulus of 30 mcg/Kg/h of pentagastrin.

For assay [3], the system named is guinea-pig gall bladder contracted with CCK-8. Kind of assay: Anticholecystokinin (anti-CCK) activity on guinea-pig gall bladders stimulated by CCK-8 in vitro. The conditions noted are these: for Anti-CCK activity IC50: CCK-8 concentration 10 ng/ml, Krebs, 32° C.; for Antagonism of contracturant activity of CCK-8 relative to lorglumide (in words): vs lorglumide. The protocol:
Anticholecystokinin (anti-cc, K) activity
In order to confirm the hypothesis that the molecular conformations of the compounds of the invention are suitable to provide them with antagonistic activity towards CCK as well as towards gastrin, the anticontracturant activities of some of the compounds of the invention were tested on guinea-pig gall bladders stimulated by CCK-8 in vitro.
A longitudinal strip of guinea-pig gall bladder was placed in a bath for isolated organs in the presence of Krebs at a temperature of 32° C. and oxygenated continuously with an oxygen-CO2 mixture (95-5 V/V).
The isometric contractions were detected by means of a force transducer and recorded.
The gall bladder was contracted with the use of a concentration of 10 ng/ml of CCK-8; the antagonistic activities of the compounds towards the contracturant effect of the CCK was determined with the use of different concentrations, thus determining the IC50 values, that is, the concentration of the compound in mcg/ml which can antagonise the contracturant effect of CCK by 50%.

In the case of `O=C(O)CCC(NC(=O)c1cccc(Cl)c1)C(=O)N1CCC2(CC1)SCCS2` (racemic) [Compound D1, (R,S) (±)-4-[(3-chlorobenzoyl)amino]-5-(1.4-dithia-8-azaspiro[4.5]decan-8-yl)-5-oxopentanoic acid], the IC50 in assay [1] turned out to be 2600 nM. Besides, in assay [2], the ED50 is > 75 mg/kg. Regarding `O=C(O)CC[C@@H](NC(=O)c1cccc(Cl)c1)C(=O)N1CCC2(CCCCC2)CC1` [Compound C2], the IC50 in assay [1] amounted to 140 nM. Moreover, the ED50 in assay [2] was found to be 33 mg/kg. In addition, the “Anti-CCK activity IC50” value in assay [3] was 4.9 µg/mL. Turning to `O=C(O)CC[C@@H](NC(=O)c1cccc(Cl)c1)C(=O)N1CCC2(CCCC2)C1` [Compound C3], the ED50 in assay [2] was found to be 75 mg/kg. For the same compound, the “Anti-CCK activity IC50” value in assay [3] turned out to be 43 µg/mL.

Turning to `O=C(O)CC[C@@H](NC(=O)c1cccc(Cl)c1)C(=O)N1CCC2(CCCCC2)C1` [Compound C4], in assay [2], the ED50 is 49 mg/kg. `O=C(O)CC[C@@H](NC(=O)c1cc(Cl)cc(Cl)c1)C(=O)N1CCC2(CCCCC2)C1` [Compound C6]: the IC50 in assay [1] amounted to 320 nM. Also, in assay [2], the ED50 turned out to be 45 mg/kg. Regarding `O=C(O)CC[C@@H](NC(=O)c1cc(Cl)cc(Cl)c1)C(=O)N1CCC2(CCCC2)C1` [Compound C7], the ED50 in assay [2] was 60 mg/kg. Still for that read-out and setting: the figure for `O=C(O)CC[C@@H](NC(=O)c1cccc(Cl)c1Cl)C(=O)N1CCC2(CCCC2)CC1` [Compound C9] is 40 mg/kg.

Turning to `O=C(O)CC[C@@H](NC(=O)c1ccc2ccccc2c1)C(=O)N1CCC2(CCCC2)CC1` [Compound C10], in assay [1], the IC50 amounted to 100 nM. Besides, the ED50 in assay [2] amounted to 45 mg/kg. Further, in assay [3], the “Anti-CCK activity IC50” value came to 1.0 µg/mL and the “Antagonism of contracturant activity of CCK-8 relative to lorglumide (in words)” value is on record as “at concentrations no greater than those shown by lorglumide”. As to `Cc1cccc(C(=O)N[C@H](CCC(=O)O)C(=O)N2CCC3(CCCC3)CC2)c1` [Compound C11], in assay [2], the ED50 came out at 38 mg/kg.

In the case of `CCc1cccc(C(=O)N[C@H](CCC(=O)O)C(=O)N2CCC3(CCCC3)CC2)c1` [Compound C12], the ED50 in assay [2] is 38 mg/kg.

As for `Cc1cc(C)cc(C(=O)N[C@H](CCC(=O)O)C(=O)N2CCC3(CCCC3)CC2)c1` [Compound C13], the ED50 in assay [2] was found to be 33 mg/kg.

For the compound `O=C(O)CC[C@@H](NC(=O)c1cccc([N+](=O)[O-])c1)C(=O)N1CCC2(CCCC2)CC1` [Compound C14], the IC50 in assay [1] was 8100 nM. In addition, the ED50 in assay [2] turned out to be 68 mg/kg. As for `COc1cccc(C(=O)N[C@H](CCC(=O)O)C(=O)N2CCC3(CCCC3)CC2)c1` [Compound C15], the ED50 in assay [2] worked out at 46 mg/kg.

As for `N#Cc1cccc(C(=O)N[C@H](CCC(=O)O)C(=O)N2CCC3(CCCC3)CC2)c1` [Compound C16], in assay [2], the ED50 amounted to 66 mg/kg. On the same count and under the same terms, the figure for `O=C(O)CC[C@@H](NC(=O)c1cccc(C(F)(F)F)c1)C(=O)N1CCC2(CCCC2)CC1` [Compound C17] is 55 mg/kg.

Regarding `CC(C)c1ccc(C(=O)N[C@H](CCC(=O)O)C(=O)N2CCC3(CCCC3)CC2)cc1` [Compound C18], the ED50 in assay [2] stood at 28 mg/kg. Regarding `O=C(O)CC[C@@H](NC(=O)c1cnc2ccccc2c1)C(=O)N1CCC2(CCCC2)CC1` [Compound C19], the ED50 in assay [2] turned out to be 68 mg/kg. In assay [3], the “Anti-CCK activity IC50” value came to 1.5 µg/mL and the “Antagonism of contracturant activity of CCK-8 relative to lorglumide (in words)” value is “at concentrations no greater than those shown by lorglumide”. The matching figures for `O=C(O)CC[C@@H](NC(=O)c1ccc(Cl)c(Cl)c1)C(=O)N1CCC2(CCCCC2)CC1` [Compound C20]: 64 mg/kg, 0.5 µg/mL and “at concentrations no greater than those shown by lorglumide”. In the case of `O=C(O)CC[C@@H](NC(=O)c1cnc2ccccc2c1)C(=O)N1CCC2(CCCCC2)CC1` [Compound C21], the IC50 in assay [1] came out at 510 nM. The ED50 in assay [2] is > 75 mg/kg. Besides, in assay [3], the “Anti-CCK activity IC50” value stood at 0.2 µg/mL and the “Antagonism of contracturant activity of CCK-8 relative to lorglumide (in words)” value is reported as “at concentrations no greater than those shown by lorglumide”. In the case of `O=C(O)CC[C@@H](NC(=O)c1cccc(Cl)c1)C(=O)NC1CCC2(CCCCC2)CC1` [Compound C22], in assay [2], the ED50 stood at 55 mg/kg. Take `O=C(O)CC[C@@H](NC(=O)c1cc(Cl)cc(Cl)c1)C(=O)NC1CCC2(CCCCC2)CC1` [Compound C23]: in assay [1], the IC50 amounted to 320 nM. The ED50 in assay [2] is 40 mg/kg. For `O=C(O)CC[C@@H](NC(=O)c1ccco1)C(=O)N1CCC2(CCCC2)CC1` [Compound C24], the ED50 in assay [2] was > 75 mg/kg. Same read-out and setting: the figure for `O=C(O)CC[C@@H](NC(=O)c1cccnc1Cl)C(=O)N1CCC2(CCCC2)CC1` [Compound C25] is 69 mg/kg.

Consider `O=C(O)CC[C@@H](NC(=O)c1cc2ccccc2[nH]1)C(=O)N1CCC2(CCCC2)CC1` [Compound C26], for which the ED50 in assay [2] was > 75 mg/kg.

`O=C(O)CC[C@@H](NC(=O)c1cccc(Cl)c1)C(=O)N1CCC2(CC1)OCCO2` [Compound C27]: the ED50 in assay [2] amounted to 81 mg/kg.

As to `O=C(O)CC[C@@H](NC(=O)c1cc(Cl)cc(Cl)c1)C(=O)N1CCC2(CC1)OCCO2` [Compound C28], the ED50 in assay [2] was 70 mg/kg. Regarding `O=C(O)CC[C@@H](NC(=O)c1cccc(Cl)c1)C(=O)N1CCC2CCCCC2C1` (stereo partly drawn) [Compound C29], the half-inhibitory concentration (IC50) in assay [1] stood at 800 nM. The ED50 in assay [2] stood at 35 mg/kg. Besides, in assay [3], the “Anti-CCK activity IC50” value was 234 µg/mL.

For the compound `O=C(O)CC[C@@H](NC(=O)c1cc(Cl)cc(Cl)c1)C(=O)NCCC12CC3CC(CC(C3)C1)C2` [Compound C31], in assay [2], the ED50 amounted to 20 mg/kg and the “Antigastrin activity (in words)” value is “particularly favourable”. Consider `O=C(O)CC[C@H](NC(=O)c1cccc(Cl)c1)C(=O)N1CCC2(CCCC2)CC1` [Compound C32], for which the half-inhibitory concentration (IC50) in assay [1] is 26000 nM. Moreover, in assay [2], the ED50 was > 100 mg/kg and the “Antigastrin activity (in words)” value was “completely inactive up to a dose of 100 mg/Kg”. Turning to `O=C(O)CCC(NC(=O)c1cccc(Cl)c1)C(=O)N1CCC2(CC1)OCCS2` (stereo not drawn) [Compound D3], the ED50 in assay [2] is 67 mg/kg. For `O=C(O)CCCC(NC(=O)c1cccc(Cl)c1)C(=O)N1CCC2(CCCC2)CC1` (stereo not drawn) [Compound D5], in assay [1], the IC50 was 1500 nM. Besides, the ED50 in assay [2] stood at 32 mg/kg. Take `O=C(O)CCC(NC(=O)c1cccc(Cl)c1)C(=O)NC1CCC2CCCCC2C1` (stereo not drawn) [Compound D6]: the ED50 in assay [2] was found to be 60 mg/kg.

As to `O=C(O)CCC(NC(=O)c1cc(Cl)cc(Cl)c1)C(=O)NC1CCC2CCCCC2C1` (stereo not drawn) [Compound D7], the ED50 in assay [2] is 48 mg/kg. Turning to `CCCCCN(CCCCC)C(=O)C(CCC(=O)O)NC(=O)c1ccc(Cl)c(Cl)c1` (stereo not drawn) [Lorglumide, lorglumide, reference compound], in assay [2], the ED50 is > 100 mg/kg and the “Antigastrin activity (in words)” value was “completely inactive up to a dose of 100 mg/Kg”. Also, the “Anti-CCK activity IC50” value in assay [3] is 0.06 µg/mL. For the compound `CCCN(CCC)C(=O)C(CCC(=O)O)NC(=O)c1ccccc1` (stereo not drawn) [Proglumide, proglumide, reference compound], the ED50 in assay [2] came out at 500 mg/kg.
